Read-outs that look alike come from different tables or passages of the source.
Tests used:
[1] = system: L. i. chagasi; assay type: in vivo, Leishmania infantum chagasi; details: infected BALB/c mice
[2] = system: RAW 264.7 cells; assay type: cell-based, murine; details: Table 1 and text, 48 h, MTT
[3] = system: promastigote of Leishmania amazonensis; details: ref Medeiros et al. 21; cited from earlier work
[4] = 100 mg/kg IP once a day for 30 days
[5] = Glucantime 80 mg/Kg intra muscular once a day for 30 days

Compound: C=CCc1ccc(OC(C)=O)c(OC)c1 [Acetyl-Eugenol, O-acetyl-eugenol]
- Presence of amastigotes in spleen (immunohistochemistry, qualitative) [1, 4]: could not be visualized

Compound: CC(=O)Oc1cc(C)ccc1C(C)C [Acetyl-Thymol, O-acetyl-thymol]
- Amount of amastigotes seen in spleen stain [1, 4]: regular amount of parasites
- Toxicity % RAW 264.7 cells survival at 100 μg/mL (±SD) [2]: not toxic

Compound: C=CCc1ccc(OC(=O)c2ccccc2)c(OC)c1 [Benzoyl-Eugenol, O-benzoyl-eugenol]
- Presence of amastigotes in spleen (immunohistochemistry, qualitative) [1, 4]: could not be visualized

Compound: Cc1ccc(C(C)C)c(O)c1 [Thymol]
- EC50 against promastigote of Leishmania amazonensis [3]: 19.4 µg/mL

Compound: Cc1ccc(C(C)C)c(OC(=O)c2ccccc2)c1 [Benzoyl-Thymol, O-benzoyl-thymol]
- Presence of amastigotes in spleen (immunohistochemistry, qualitative) [1, 4]: could not be visualized

Compound: antimoniate N-methyl glucamine [Glucantime, reference compound]
- Amount of amastigotes seen in spleen stain [1, 5]: only a few amastigotes
- Presence of amastigotes in spleen (immunohistochemistry, qualitative) [1, 5]: visible

From PMC5106290 (Bioorganic & medicinal chemistry, 2014)
